Assay [1] addresses T1, PD-L1 (Homo sapiens, UniProt Q9NZQ7).
T1 construct: gene CD274
Description: X-ray co-crystal structure ([…] Å), 1H NMR binding; IC50 from HTRF PD-1/PD-L1 disruption. Background: In TR-FRET formats the signal depends on donor and acceptor labels being close together.

In assay [2] the target is T1, PD-L1. The description is as above. This is another data set of the same source.

By IC50 is commonly meant the concentration at which inhibition is half-maximal. High values mean a need for much substance, low ones inhibition by little substance.

Where two headings read alike, the source gives them in different places.

T1 sequence (Q9NZQ7 19-290): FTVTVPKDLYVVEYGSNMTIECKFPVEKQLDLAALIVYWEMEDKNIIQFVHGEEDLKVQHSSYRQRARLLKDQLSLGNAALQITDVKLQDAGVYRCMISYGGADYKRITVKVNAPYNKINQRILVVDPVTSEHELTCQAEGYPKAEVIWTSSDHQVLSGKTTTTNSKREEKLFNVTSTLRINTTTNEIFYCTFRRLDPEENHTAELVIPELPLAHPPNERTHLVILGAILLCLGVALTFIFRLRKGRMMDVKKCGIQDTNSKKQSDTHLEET

`Cc1c(Nc2nccc3cc(CN4CC[C@@H](O)C4)cnc23)cccc1-c1cccc(-c2nc3cc(CN4CC[C@@H](C(=O)O)C4)cc(C#N)c3o2)c1C` [INCB086550] gave an IC50 on PD-L1 [1] of 2.59 ± 0.09 nM.

In turn, `Cc1c(C=Cc2cc(CNC(C)(CO)C(=O)O)ccc2C(F)(F)F)cccc1-c1ccc2c(c1)OCCO2` (centres unmarked) [MAX-10181] gave an IC50 at PD-L1 [2] of 6.88 ± 0.12 nM.

(Values after article PMC12257390, “Characterization of Clinically Evaluated Small-Molecule Inhibitors of PD-L1 for Immunotherapy” (ACS Medicinal Chemistry Letters, 2025).)
